# According to paper PMC11816722, “GATA3-Driven ceRNA Network in Lung Adenocarcinoma Bone Metastasis Progression and Therapeutic Implications” (Cancers, 2025):
# Molecular target: T1, NPRL3 (Homo sapiens, UniProt Q12980)
# T1 sequence (Q12980 1-569): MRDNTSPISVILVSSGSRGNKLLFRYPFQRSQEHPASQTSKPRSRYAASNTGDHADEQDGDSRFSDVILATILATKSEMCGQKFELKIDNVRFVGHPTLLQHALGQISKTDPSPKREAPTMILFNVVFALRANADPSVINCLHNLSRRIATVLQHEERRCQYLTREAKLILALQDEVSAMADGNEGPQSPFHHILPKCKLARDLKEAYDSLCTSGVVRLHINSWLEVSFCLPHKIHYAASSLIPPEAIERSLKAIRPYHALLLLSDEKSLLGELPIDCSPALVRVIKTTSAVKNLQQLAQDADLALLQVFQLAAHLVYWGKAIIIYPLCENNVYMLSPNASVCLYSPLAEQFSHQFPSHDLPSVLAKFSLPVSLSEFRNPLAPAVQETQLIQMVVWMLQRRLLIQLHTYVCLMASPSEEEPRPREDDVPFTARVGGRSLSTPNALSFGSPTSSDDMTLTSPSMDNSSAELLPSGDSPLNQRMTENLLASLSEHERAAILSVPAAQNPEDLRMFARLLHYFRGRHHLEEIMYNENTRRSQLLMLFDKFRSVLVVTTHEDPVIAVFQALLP
# Experiment: SPR (Biacore T200, immobilized recombinant NPRL3, steady-state […] fit); supported by DARTS in A549L6 lysate
# Format: binding
structure (smiles),measurement,value
O=c1[nH]nc2c3c(cccc13)N=C(CN1Cc3ccccc3C1)N2 [E7449],Kd,11.8 µM
